The values that follow come from patent US20040214760A1, “Inhibition pf protein-phosphatases for the treatment of heart failure” (priority 2001, published 2004).

For one test, the system named is PP1. Conditions: heat and acid stable proteins of skeletal muscle extract (Cohen et al., 1998); cited from earlier work.
For test [1], the target named is 32P-labelled phosphorylase a.

Regarding inhibitor-1, the “inhibition of phosphatase (PP1) activity, dependence on phosphorylation state” value in the test with PP1 is “inhibits phosphatase activity only when it has been phosphorylated by cAMP-dependent protein kinase”.

With “purified catalytic subunit of PP1 from rabbit skeletal muscle (enzyme)”, the 32P released from 32P-labelled phosphorylase a in test [1] amounted to 30%.
